Data as given in patent US20100216255A1, “METHODS OF DETERMINING ACTIVE LEVELS OF DRUGS IN FLUID SAMPLES” (CLINICAL REFERENCE LABORATORY, priority 2001, published 2010).

Columns and labels:
[1] = biological target: T1, Beta-1-adrenergic receptor (Homo sapiens, UniProt P08588); experiment: Cell receptor assay, competition with radiolabeled 125-iodocyanopindolol; assay type: binding; details: cut-off control, 20 ug/ml Atenolol in drug negative urine, diluted 1 to 10 before assay; 2 h at room temperature; counts inversely related to unlabeled ligand
T1 construct: purchased Sigma Chemical RBIB-143
T1 sequence (P08588 whole entry, species assumed): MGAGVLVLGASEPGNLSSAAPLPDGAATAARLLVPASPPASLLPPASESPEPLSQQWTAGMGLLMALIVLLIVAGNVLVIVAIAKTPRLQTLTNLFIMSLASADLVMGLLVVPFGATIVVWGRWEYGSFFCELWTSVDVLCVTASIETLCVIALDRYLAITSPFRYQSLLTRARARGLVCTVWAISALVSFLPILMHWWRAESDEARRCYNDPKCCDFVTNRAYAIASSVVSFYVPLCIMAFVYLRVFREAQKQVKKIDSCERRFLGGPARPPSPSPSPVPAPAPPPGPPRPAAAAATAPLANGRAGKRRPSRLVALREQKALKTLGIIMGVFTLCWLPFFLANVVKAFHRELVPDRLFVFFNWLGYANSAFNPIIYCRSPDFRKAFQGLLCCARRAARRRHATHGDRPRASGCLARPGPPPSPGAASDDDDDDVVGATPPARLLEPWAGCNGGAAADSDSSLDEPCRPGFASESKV
Method: This example provides a cell receptor assay for B1 adrenergic receptors and tests the accuracy of the assay. Patient urine that may or may not contain target ligand and a radiolabeled competitive ligand are added to a test tube containing a limited concentration of cell membrane containing beta-1-adrenergic receptors. The unlabeled ligand in the patient's urine competes with the labeled ligand for the receptor sites during an incubation period. Following incubation the tubes are centrifuged to precipitate the cell membrane-receptors. The solution containing unbound ligand is decanted and the radioactivity retained in the tubes is detected in a gamma counter. The amount of radioactivity bound is indirectly proportional to the concentration of unlabeled ligand present in the patient's urine. […] Adjust the pH to 7.4 with concentrated hydrochloric acid and fill to volume with deionized water. […] Thaw the stock solution of membrane and dilute to 30 milliliter with Tris working buffer. […] The working solution of radiolabel is prepared by diluting the stock 1 to 30 with Tris working buffer. […] Atenolol, propranolol and metoprolol were diluted with HPLC grade ethyl alcohol (Aldrich Chemical Company Milwaukee, Wis.) to produce a 1.0 mg/ml stock solution for each drug. […] The total radioactivity was detected on Packard Cobra II Auto Gamma counter (Packard Instrument Company Downers Grove, Ill.).

[2] = biological target: Angiotensin Converting Enzyme (ACE) (Homo sapiens, UniProt P12821); experiment: ACE enzyme inhibition assay on samples from individuals reporting an ACE-inhibiting drug; details: urine samples from individuals self-reporting the drug; count out of the LISTED number
Chain of Angiotensin Converting Enzyme (ACE) (P12821 30-1232 limits assumed): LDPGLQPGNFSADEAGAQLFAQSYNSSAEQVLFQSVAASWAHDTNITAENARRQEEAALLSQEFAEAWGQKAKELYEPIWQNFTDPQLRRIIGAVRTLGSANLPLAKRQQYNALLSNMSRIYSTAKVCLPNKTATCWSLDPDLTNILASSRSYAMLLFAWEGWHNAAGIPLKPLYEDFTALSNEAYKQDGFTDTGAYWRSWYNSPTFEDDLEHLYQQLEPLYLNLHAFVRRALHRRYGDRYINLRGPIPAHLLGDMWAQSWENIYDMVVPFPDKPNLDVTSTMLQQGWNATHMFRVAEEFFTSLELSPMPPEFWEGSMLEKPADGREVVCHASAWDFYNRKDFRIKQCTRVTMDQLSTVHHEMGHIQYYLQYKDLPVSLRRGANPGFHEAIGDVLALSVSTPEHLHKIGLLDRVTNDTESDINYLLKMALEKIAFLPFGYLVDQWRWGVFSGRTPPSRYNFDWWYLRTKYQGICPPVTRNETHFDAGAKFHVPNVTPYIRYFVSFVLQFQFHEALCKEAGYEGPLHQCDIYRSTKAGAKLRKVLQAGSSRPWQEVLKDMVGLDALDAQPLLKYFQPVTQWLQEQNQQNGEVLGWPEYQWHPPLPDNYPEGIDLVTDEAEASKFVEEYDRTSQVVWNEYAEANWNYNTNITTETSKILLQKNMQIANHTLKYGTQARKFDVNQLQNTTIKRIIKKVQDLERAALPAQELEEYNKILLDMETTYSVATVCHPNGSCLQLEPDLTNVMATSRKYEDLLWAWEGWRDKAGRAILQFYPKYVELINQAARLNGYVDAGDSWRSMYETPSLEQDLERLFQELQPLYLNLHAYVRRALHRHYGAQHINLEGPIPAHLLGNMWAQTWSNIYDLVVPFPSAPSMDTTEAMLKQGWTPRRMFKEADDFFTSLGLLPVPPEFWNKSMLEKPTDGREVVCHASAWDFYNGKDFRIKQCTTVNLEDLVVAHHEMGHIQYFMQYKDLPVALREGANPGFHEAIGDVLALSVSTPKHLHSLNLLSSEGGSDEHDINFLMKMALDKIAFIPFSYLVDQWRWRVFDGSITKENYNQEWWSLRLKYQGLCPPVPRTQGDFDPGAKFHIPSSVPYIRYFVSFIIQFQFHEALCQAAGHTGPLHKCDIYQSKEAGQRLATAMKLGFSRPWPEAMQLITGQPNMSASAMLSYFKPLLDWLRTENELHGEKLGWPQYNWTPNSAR
Method: The bottle was then inverted a few times and then put on a shaker (Clay Adams CA6000 Centrifuge Becton Dickinson Microbiology System Sparks, Md.) at speed setting 2 for ten minutes. […] The pH was adjusted to 8.2 with 6 N hydrochloric acid.
Using the above-described reagents, a Hamilton MicroLab AT pipetting station was used to transfer 100 μl of the ACE serum in Tris buffer to each well of a microtiter plate. Next, 25 μl of the cut-off level calibrator, controls and unknown were added to their corresponding well locations with the Hamilton MicroLab AT, as shown in Table 1.
Five different patient samples were then added to five other wells. The microtiter plate was shaker on Titer Plate Shaker (Lab Line Instruments, Inc. Melrose, Ill.) at a setting of 2 for at least five minutes before pipetting 100 μl of the substrate FAPGG into each well. Next, solution was mixed by shaking the microtiter plate on the shaker at a speed setting of 2 for one minute. The microtiter plate was placed in the Spectra Mac Plus (Molecular Devices, Sunnyvale, Calif.) plate reader and the optical density of each sample at 340 nanoMeter was determined. The microtiter plate was then incubated at 37° C. for two hours. The optical density was again determined on the plate reader. This two-hour reading of optical density was then subtracted from the initial reading of optical density and termed the “delta OD 340.”
Fluid samples were obtained from individuals reporting that they were currently taking an ACE-inhibiting drug. […] The medications reported by the patients included eight different medications of the ACE-inhibiting drug family. Each individual reported taking only one specific ACE-inhibiting drug. Thus, this example tests the ability of the assay to identify individuals on ACE-inhibiting drugs without prior knowledge of the specific drug being taken.

CC(C)NCC(O)COc1ccc(CC(N)=O)cc1 (stereo not shown) [Atenolol]
Counts per Minute [1]: 5117

CCOC(=O)[C@H](CCc1ccccc1)N[C@H]1CCc2ccccc2N(CC(=O)O)C1=O [BENAZEPRIL, benazepril]
DETECTED (samples testing positive for ACE-inhibiting drugs) [2]: 14

CCOC(=O)[C@H](CCc1ccccc1)N[C@@H](C)C(=O)N1CCC[C@H]1C(=O)O [ENALAPRIL, enalapril]
DETECTED (samples testing positive for ACE-inhibiting drugs) [2]: 5

NCCCC[C@H](N[C@@H](CCc1ccccc1)C(=O)O)C(=O)N1CCC[C@H]1C(=O)O [LISINOPRIL, lisinopril]
DETECTED (samples testing positive for ACE-inhibiting drugs) [2]: 22

CCOC(=O)[C@H](CCc1ccccc1)N[C@@H](C)C(=O)N1Cc2cc(OC)c(OC)cc2C[C@H]1C(=O)O [MOEXIPRIL, moexipril]
DETECTED (samples testing positive for ACE-inhibiting drugs) [2]: 3

CCOC(=O)[C@H](CCc1ccccc1)N[C@@H](C)C(=O)N1Cc2ccccc2C[C@H]1C(=O)O [QUINAPRIL, quinapril]
DETECTED (samples testing positive for ACE-inhibiting drugs) [2]: 15

CCOC(=O)[C@H](CCc1ccccc1)N[C@@H](C)C(=O)N1[C@H](C(=O)O)C[C@@H]2CCC[C@@H]21 [RAMIPRIL, ramipril]
DETECTED (samples testing positive for ACE-inhibiting drugs) [2]: 2
